Experimental findings from PubChem BioAssay AID264 (DTP/NCI, 2004) are described below.

For the assay, the system named is nude mice, LX-1 lung xenograft intrarenal, tumor weight T/C. The assay can be described thus: NCI In Vivo Anticancer Drug Screen. Data for tumor model Human Lung LX-1 Xenograft (intrarenal inoculation) in NU/NU Swiss (nude) mice. To be noted: endpoint: mean tumor weight change, higher = larger tumour. Put shortly:
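In vivo, transplantable tumor; compound vs vehicle arms; tumor size measured; value = T/C.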

[1] abbreviates: dose: 300.0 mg/kg/injection, schedule: Q04DX003 (sc), vehicle: saline with Tween-80.
The mark [2] stands for this setting: dose: 600.0 mg/kg/injection, schedule: Q04DX003 (sc), vehicle: saline with Tween-80.
Where [3] appears, read: dose: 1200.0 mg/kg/injection, schedule: Q04DX003 (sc), vehicle: saline with Tween-80.
Setting [4] is: dose: 2400.0 mg/kg/injection, schedule: Q04DX003 (sc), vehicle: saline with Tween-80.

Where “and” joins values, the source holds several entries; their conditions need not be identical. Equal values may be shown once. Results filed as inconclusive are left out. Peptide text beside a SMILES is read from it. * marks the point of attachment. Trt = c1ccc(C(c2ccccc2)(c2ccccc2)*)cc1; Cbz = O=C(OCc1ccccc1)*

Turning to `COc1cccc(C2NC(=O)c3c(n[nH]c3N)S2)c1O` (stereo unspecified), the T/C is, setting by setting: under setting [1], 171 % of control; under setting [2], 77 % of control; under setting [3], 95 % of control; under setting [4], 162 % of control.

As for `CCCCN(CCCC)C(Cl)=Nc1ccccc1`, the T/C (dose: 400.0 mg/kg/injection, schedule: Q04DX003 (sc), vehicle: other) is 116 % of control.

With `CCC(=O)N(C)[C@@H](C)C(=O)O[C@H]1CC(=O)N(C)c2cc(cc(OC)c2Cl)C/C(C)=C/C=C[C@@H](OC)[C@@]2(O)C[C@H](OC(=O)N2)[C@@H](C)[C@@H]2O[C@@]12C`, the T/C by setting is: (dose: 0.13 mg/kg/injection, schedule: Q01DX010 (sc), vehicle: saline + alcohol) 106 % of control; (dose: 0.25 mg/kg/injection, schedule: Q01DX010 (sc), vehicle: saline + alcohol) 31 % of control.

As to `C[C@@](O)(/C=C/[C@H]1CC=CC(=O)O1)[C@@H](C[C@@H](O)\C=C/C=C\C=C\CO)OP(=O)(O)O`, the T/C by setting is: (dose: 7.5 mg/kg/injection, schedule: Q04DX003 (sc), vehicle: other) 160 % of control; (dose: 15.0 mg/kg/injection, schedule: Q04DX003 (sc), vehicle: other) 168 % of control.

On to `CN(C)N=Nc1cccc(C(N)=O)c1`, for which the T/C by setting is: (dose: 25.0 mg/kg/injection, schedule: Q04DX003 (sc), vehicle: Klucel (hydroxypropylcellulose) (HPC)) 72 % of control; (dose: 50.0 mg/kg/injection, schedule: Q04DX003 (sc), vehicle: Klucel (hydroxypropylcellulose) (HPC)) 47 % of control; (dose: 100.0 mg/kg/injection, schedule: Q04DX003 (sc), vehicle: Klucel (hydroxypropylcellulose) (HPC)) 7 % of control and 15 % of control; (dose: 200.0 mg/kg/injection, schedule: Q04DX003 (sc), vehicle: Klucel (hydroxypropylcellulose) (HPC)) 4 % of control and 29 % of control; (dose: 400.0 mg/kg/injection, schedule: Q04DX003 (sc), vehicle: Klucel (hydroxypropylcellulose) (HPC)) -61 % of control.

On to `O=c1n(CC2CO2)c(=O)n(CC2CO2)c(=O)n1CC1CO1` (stereo unspecified), for which the T/C is 65 % of control (dose: 12.5 mg/kg/injection, schedule: Q01DX010 (sc), vehicle: saline); 56 % of control (dose: 25.0 mg/kg/injection, schedule: Q01DX010 (sc), vehicle: saline); 94 % of control (dose: 25.0 mg/kg/injection, schedule: Q04DX003 (sc), vehicle: saline with Tween-80); 100 % of control (dose: 50.0 mg/kg/injection, schedule: Q04DX003 (sc), vehicle: saline with Tween-80).

In the case of `ClCCCCCCCCCCc1ccccc1`, the T/C runs as follows: (dose: 100.0 mg/kg/injection, schedule: Q01DX010 (sc), vehicle: Klucel (hydroxypropylcellulose) (HPC)) 260 % of control; (dose: 200.0 mg/kg/injection, schedule: Q01DX010 (sc), vehicle: Klucel (hydroxypropylcellulose) (HPC)) 94 % of control; (dose: 400.0 mg/kg/injection, schedule: Q01DX010 (sc), vehicle: Klucel (hydroxypropylcellulose) (HPC)) 71 % of control; (dose: 800.0 mg/kg/injection, schedule: Q01DX010 (sc), vehicle: Klucel (hydroxypropylcellulose) (HPC)) 52 % of control.

Consider `COC1=CC(=O)N(C(=O)C2CSC(C(CO)NC(=O)c3csc(/C=N/O)n3)=N2)C1` (stereo unspecified), for which the T/C (dose: 225.0 mg/kg/injection, schedule: Q04DX003 (sc), vehicle: Klucel (hydroxypropylcellulose) (HPC)) is 59 % of control; the T/C (dose: 450.0 mg/kg/injection, schedule: Q04DX003 (sc), vehicle: Klucel (hydroxypropylcellulose) (HPC)) was 112 % of control; the T/C (dose: 900.0 mg/kg/injection, schedule: Q04DX003 (sc), vehicle: Klucel (hydroxypropylcellulose) (HPC)) was 87 % of control; the T/C (dose: 1800.0 mg/kg/injection, schedule: Q04DX003 (sc), vehicle: Klucel (hydroxypropylcellulose) (HPC)) was 50 % of control.

For `O=C(Nc1nncs1)c1ccncc1`, the T/C is, setting by setting: (dose: 50.0 mg/kg/injection, schedule: Q01DX010 (sc), vehicle: saline with Tween-80) 115 % of control; (dose: 100.0 mg/kg/injection, schedule: Q01DX010 (sc), vehicle: saline with Tween-80) 91 % of control.

As for `COC(=O)C[C@](O)(CCC(C)(C)O)C(=O)O[C@@H]1C(OC)=C[C@]23CCCN2CCc2cc4c(cc2[C@H]13)OCO4`, the T/C (dose: 0.63 mg/kg/injection, schedule: Q04DX003 (sc), vehicle: saline) is 115 % of control; the T/C (dose: 1.25 mg/kg/injection, schedule: Q04DX003 (sc), vehicle: saline) was 110 % of control; the T/C (dose: 2.5 mg/kg/injection, schedule: Q04DX003 (sc), vehicle: saline) was 95 % of control; the T/C (dose: 5.0 mg/kg/injection, schedule: Q04DX003 (sc), vehicle: saline) is 102 % of control.

`CCOC(OCC)C(=O)OCC(=O)[C@]1(O)Cc2c(O)c3c(c(O)c2[C@@H](OC2CC(N)C(O)C(C)O2)C1)C(=O)c1c(OC)cccc1C3=O` (stereo partly specified): the T/C was 68 % of control (dose: 2.0 mg/kg/injection, schedule: Q01DX010 (sc), vehicle: water) and 27 % of control (dose: 4.0 mg/kg/injection, schedule: Q01DX010 (sc), vehicle: water).

With `COC(=O)C(CSC(c1ccccc1)(c1ccccc1)c1ccccc1)NC(=O)C(CC(N)=O)NC(=O)OCc1ccccc1` (stereo not drawn) (Cbz-Asn-Cys(Trt)-OMe; configuration not given here), the T/C reads like this: (dose: 300.0 mg/kg/injection, schedule: Q04DX003 (sc), vehicle: distilled water + Tween-80) 79 % of control; (dose: 1200.0 mg/kg/injection, schedule: Q04DX003 (sc), vehicle: distilled water + Tween-80) 105 % of control; (dose: 2400.0 mg/kg/injection, schedule: Q04DX003 (sc), vehicle: distilled water + Tween-80) 116 % of control.

For `CC[C@@H](C)[C@@H]1NC(=O)C(NC(=O)C(CC(C)C)N(C)C(=O)C2CCCN2C(=O)C(C)O)C(C)OC(=O)C(Cc2ccc(OC)cc2)N(C)C(=O)C2CCCN2C(=O)C(CC(C)C)NC(=O)C(C)C(=O)C(C(C)C)OC(=O)C[C@H]1O` (stereo partly specified), the T/C reads like this: (dose: 75.0 micrograms/kg/injection, schedule: Q04DX003 (sc), vehicle: distilled water + alcohol) 28 % of control; (dose: 600.0 micrograms/kg/injection, schedule: Q04DX003 (sc), vehicle: distilled water + alcohol) 85 % of control and 87 % of control; (dose: 1200.0 micrograms/kg/injection, schedule: Q04DX003 (sc), vehicle: distilled water + alcohol) 87 % of control.

Take `CCCCC1CCCCCCc2[nH]c(/C=C3\N=C(c4ccc[nH]4)C=C3OC)cc21` (stereo unspecified): the T/C by setting is: (dose: 4.0 mg/kg/injection, schedule: Q04DX003 (sc), vehicle: saline with Tween-80) 61 % of control; (dose: 8.0 mg/kg/injection, schedule: Q04DX003 (sc), vehicle: saline with Tween-80) 66 % of control; (dose: 16.0 mg/kg/injection, schedule: Q04DX003 (sc), vehicle: saline with Tween-80) 55 % of control.

Regarding `C[CH2][Ge]([CH2]C)[CH2]C.C[CH2][Ge]([CH2]C)[CH2]C.C[CH2][Ge]([CH2]C)[O][Ge]([CH2]C)[CH2]C`, the T/C (dose: 75.0 mg/kg/injection, schedule: Q04DX003 (sc), vehicle: saline with Tween-80) is 91 % of control; the T/C (dose: 150.0 mg/kg/injection, schedule: Q04DX003 (sc), vehicle: saline with Tween-80) is 98 % of control; the T/C under setting [1] is 63 % of control; the T/C under setting [2] was 114 % of control.

With `Cn1ccc(=Nc2ccc(NC(=O)c3ccc(N=c4ccn(C)c5ccc([N+](=O)[O-])cc45)cc3[N+](=O)[O-])cc2)cc1`, the T/C under setting [1] was 93 % of control, the T/C under setting [2] is 75 % of control, the T/C under setting [3] was 86 % of control and the T/C under setting [4] was 83 % of control.

`BrC1CC(Br)c2c1c1c(c3c2C(Br)CC3Br)C(Br)CC1Br` (stereo unspecified): the T/C reads like this: (dose: 300.0 mg/kg/injection, schedule: Q04DX003 (sc), vehicle: water) 46 % of control; (dose: 600.0 mg/kg/injection, schedule: Q04DX003 (sc), vehicle: water) 43 % of control; (dose: 1200.0 mg/kg/injection, schedule: Q04DX003 (sc), vehicle: water) 29 % of control; (dose: 2400.0 mg/kg/injection, schedule: Q04DX003 (sc), vehicle: water) 29 % of control.

For the molecule `O=[N+]([O-])c1nccn1CC(O)CO` (stereo unspecified), the T/C (dose: 600.0 mg/kg/injection, schedule: Q04DX003 (sc), vehicle: saline) was 91 % of control; the T/C (dose: 1200.0 mg/kg/injection, schedule: Q04DX003 (sc), vehicle: saline) is 78 % of control; the T/C (dose: 2400.0 mg/kg/injection, schedule: Q04DX003 (sc), vehicle: saline) is 108 % of control.

Turning to `O=C(O)CC(NC(=O)CP(=O)(O)O)C(=O)O.[NH-]C1CCCCC1[NH-].[Pt+2]` (stereo unspecified), the T/C by setting is: (dose: 6.25 mg/kg/injection, schedule: Q04DX003 (sc), vehicle: dextrose) 86 % of control; (dose: 12.5 mg/kg/injection, schedule: Q04DX003 (sc), vehicle: dextrose) 72 % of control; (dose: 25.0 mg/kg/injection, schedule: Q04DX003 (sc), vehicle: dextrose) 54 % of control.
